Reference: publication PMC6688182 (Peptides, 2017)
Several values for one entry are separate records, joined by “and”; a condition that tells them apart may be missing. Equal values may be shown once. Entries after “also recorded” stand apart in the source; their conditions may differ.

Legend:
[1] = tested on: Ang-(1–7)-dependent vasorelaxation of the isolated renal artery; assay: Effect of K+ channel blockers on Ang-; set-up: species or system male Wistar rat; details: glibenclamide 10^−5 M; PE 3 × 10^−7 M; mean ± SEM, N = 8; * P < 0.05 vs. control
[2] = tested on: anti-nociceptive actions of Ang-(1–7); details: ref [13]; cited from earlier work
[3] = tested on: Ang-(1–7)-dependent vasorelaxation of the isolated renal artery; assay: Effect of NOS, soluble guanylate cyclase and cyclooxygenase inhibitors on Ang-; set-up: species or system male Wistar rat; details: for Effect of signaling inhibitor on Ang-(1–7)-induced vasorelaxation (in words) / Maximal vasorelaxation response to Ang-(1–7) in presence of L-NAME: L-NAME 10^−4 M; for Effect of signaling inhibitor on Ang-(1–7)-induced vasorelaxation (in words): indomethacin 10^−6 M; for Maximal vasorelaxation response to Ang-(1–7) in presence of L-NAME: N = 6
mesenteric vessels = details: rat mesentery; ref [20]; cited from earlier work
blood pressure = details: ref [1],[16],[17]; cited from earlier work
afferent arterioles = details: ref [24]; cited from earlier work
SHR and WKY rats = SHR and WKY rats following AT1 receptor blockade; ref [36]; cited from earlier work
bovine endothelial cells = details: cited from earlier work; for Effect on NO stimulation by Ang-(1–7) or AVE0991: bovine endothelial cells, ref [14],[37]
[4] = tested on: Ang-(1–7)-dependent vasorelaxation of the isolated renal artery; assay: Effect of angiotensin receptor antagonists on Ang-; set-up: species or system male Wistar rat; details: for Effect of receptor antagonist on Ang-(1–7)-induced vasorelaxation (in words): DALA, DPRO, Sarthran 10^−5 M, losartan, PD123319 10^−6 M, 20 min
aortic segments = details: ref [28]; cited from earlier work
mesenteric artery = details: ref [21]; cited from earlier work
AT2 receptor = target: T1, AT2 receptor (Rattus norvegicus, UniProt P35351); assay: Competition of 125I-Sarthran binding in AR42J pancreatic cell membranes; details: 0.2 nM 125I-Sarthran, antagonists up to 10^−5 M, n = 3
T1 sequence (P35351 1-363): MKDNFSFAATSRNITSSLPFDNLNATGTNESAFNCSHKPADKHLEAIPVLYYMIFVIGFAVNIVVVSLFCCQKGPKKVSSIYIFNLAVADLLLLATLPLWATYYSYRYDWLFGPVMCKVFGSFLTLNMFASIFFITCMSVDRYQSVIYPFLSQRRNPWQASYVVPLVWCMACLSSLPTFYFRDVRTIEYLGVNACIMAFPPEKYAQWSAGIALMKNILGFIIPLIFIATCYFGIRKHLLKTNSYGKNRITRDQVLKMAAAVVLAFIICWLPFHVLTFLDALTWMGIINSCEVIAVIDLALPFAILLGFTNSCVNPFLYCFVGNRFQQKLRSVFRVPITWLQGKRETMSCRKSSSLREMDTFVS

older WKY rats = details: 20 months, ref [5]; cited from earlier work
[5] = tested on: Mas-related receptor MrgD; details: aortic rings; ref [19]; cited from earlier work
[6] = tested on: Ang-(1–7)-dependent vasorelaxation of the isolated renal artery; assay: Effect of bradykinin B2 receptor antagonist on Ang-; set-up: species or system male Wistar rat
[7] = tested on: blood flow in multiple vascular beds; details: kidney, mesentery and skin; ref [27]; cited from earlier work
AT2 and AT1 sites = details: ref [4],[30],[31],[35]; cited from earlier work

## COc1ccc(Cl)cc1C(=O)NCCc1ccc(S(=O)(=O)NC(=O)NC2CCCCC2)cc1 [Glibenclamide]
[1]
  Maximal vasorelaxation response to Ang-(1–7) in presence of glibenclamide: 22.3 ± 2.3 ^* %
[2]
  Effect on anti-nociceptive actions of Ang-(1–7): abolished the anti-nociceptive actions of Ang-(1–7)

## COc1ccc2c(c1)c(CC(=O)O)c(C)n2C(=O)c1ccc(Cl)cc1 [Indomethacin]
[3]; ODQ 10^−5 M
  Effect of signaling inhibitor on Ang-(1–7)-induced vasorelaxation (in words): failed to block the Ang-(1–7) response
Mesenteric vessels
  Effect on Ang-(1–7)-dependent dilation of mesenteric vessels: inhibition of the Ang-(1–7) vasorelaxant effects
Blood pressure
  Effect on blood pressure-lowering effects of Ang-(1–7): attenuated the blood pressure-lowering effects of the peptide

## CCc1nc2c(C)cc(C)nc2n1Cc1ccc(-c2ccccc2-c2nn[nH]n2)cc1 [L158809]
Afferent arterioles
  Effect on Ang-(1–7)-induced vasodilation of renal afferent arterioles: not reversed

## COC(=O)[C@@H](N)CCCNC(N)=N[N+](=O)[O-] [L-NAME, nitro-l-arginine methyl ester]
[3]; Ang-(1–7) 10^−12 to 10^−6 M, PE 3 × 10^−7 M, mean ± SEM, * P < 0.05 vs. control
  Maximal vasorelaxation response to Ang-(1–7) in presence of L-NAME: 13.4 ± 2.0 ^* %
[3]; Ang-(1–7) 10^−12 to 10^−6 M, PE 3 × 10^−7 M, mean ± SEM, * P < 0.05 vs. control, listed as LNAME
  Maximal vasorelaxation response to Ang-(1–7) in presence of L-NAME: 13 ± 2%
[3]; ODQ 10^−5 M
  Effect of signaling inhibitor on Ang-(1–7)-induced vasorelaxation (in words): attenuated the Ang-(1–7) response
SHR and WKY rats
  Effect on depressor effects of Ang-(1–7): sensitive
Bovine endothelial cells
  Effect on NO stimulation by Ang-(1–7) or AVE0991: blocked
Mesenteric vessels
  Effect on Ang-(1–7)-dependent dilation of mesenteric vessels: inhibition of the Ang-(1–7) vasorelaxant effects

## CCCCc1nc(Cl)c(CO)n1Cc1ccc(-c2ccccc2-c2nn[nH]n2)cc1 [Losartan]
[4]
  Maximal vasorelaxation response to Ang-(1–7) in presence of antagonist: 22 ± 6%
  Effect of receptor antagonist on Ang-(1–7)-induced vasorelaxation (in words): significantly attenuated
Aortic segments
  Effect on Ang-(1–7)-dependent relaxation of aortic segments: no inhibitory effect
Mesenteric artery
  Effect on vasorelaxation of the mesenteric artery by Ang-(1–7): blocked

## O=c1onc2cnc3ccccc3n12 [ODQ, 1H-[1,2,4] oxadiazolo-quinoxalin]
[3]; ODQ 10^−5 M, Ang-(1–7) 10^−12 to 10^−6 M, PE 3 × 10^−7 M, mean ± SEM, N = 8, * P < 0.05 vs. control
  Maximal vasorelaxation response to Ang-(1–7) in presence of ODQ: 10 ± 2% and 10.0 ± 2.1 ^* %

## Cc1cc(Cn2cnc3c2C[C@@H](C(=O)O)N(C(=O)C(c2ccccc2)c2ccccc2)C3)ccc1N(C)C [PD123319]
[4]
  Effect of receptor antagonist on Ang-(1–7)-induced vasorelaxation (in words): significantly attenuated
AT2 receptor
  Competition of 125I-Sarthran binding (in words): essentially abolished binding
Aortic segments
  Effect on Ang-(1–7)-dependent relaxation of aortic segments: no inhibitory effect
Mesenteric artery
  Effect on vasorelaxation of the mesenteric artery by Ang-(1–7): but not the AT2 antagonist PD123319
Afferent arterioles
  Effect on Ang-(1–7)-induced vasodilation of renal afferent arterioles: not reversed
SHR and WKY rats
  Effect on depressor effects of Ang-(1–7): abolished
Older WKY rats
  Effect on depressor actions of Ang-(1–7): blocked the depressor actions of Ang-(1–7)
[5]
  Effect on the effects of [Ala^1]-Ang-(1–7): abolished the effects of [Ala^1]-Ang-(1–7)
Bovine endothelial cells
  Effect on NO stimulation by Ang-(1–7) or AVE0991: blocked

## CCOc1nc2cccc(C(=O)O)c2n1Cc1ccc(-c2ccccc2-c2nnn[nH]2)cc1 [candesartan]
Mesenteric artery
  Effect on vasorelaxation of the mesenteric artery by Ang-(1–7): blocked
Bovine endothelial cells; ref [14]
  Effect on Ang-(1–7)-dependent NO release: attenuated Ang-(1–7)-dependent NO release

## HOE140
[6]; HOE140 5 × 10^−8 M, alone or with L-NAME 10^−4 M
  Effect of B2 antagonist on Ang-(1–7)-induced vasorelaxation (in words): markedly inhibited the vasorelaxation to Ang-(1–7); also recorded: significantly attenuated
[6]; HOE140 5 × 10^−8 M, PE 3 × 10^−7 M, mean ± SEM, N = 9, * P < 0.05 vs. control 42.4 ± 5.8
  Maximal vasorelaxation response to Ang-(1–7) in presence of HOE140: 14.0 ± 7.0 ^* %
[6]; HOE140 10^−6 M as printed in the abstract, PE 3 × 10^−7 M, mean ± SEM
  Ang-(1–7)-induced relaxation (maximal response) in presence of HOE140: 14 ± 7%
SHR and WKY rats
  Effect on depressor effects of Ang-(1–7): sensitive
Bovine endothelial cells
  Effect on NO stimulation by Ang-(1–7) or AVE0991: blocked

## [D-Alanine^7]-Ang-(1–7) [D-Ala^7-Ang-(1–7)]
[4]
  Effect of receptor antagonist on Ang-(1–7)-induced vasorelaxation (in words): significantly inhibited; also recorded: essentially abolished
Aortic segments
  Effect on Ang-(1–7)-dependent relaxation of aortic segments: abolished
Mesenteric artery
  Effect on vasorelaxation of the mesenteric artery by Ang-(1–7): blocked
Afferent arterioles
  Effect on Ang-(1–7)-induced vasodilation of renal afferent arterioles: abolished
[7]
  Effect on increase in blood flow by Ang-(1–7): abolished
Older WKY rats
  Effect on depressor actions of Ang-(1–7): blocked the depressor actions of Ang-(1–7)
[5]
  Effect on the effects of [Ala^1]-Ang-(1–7): ineffective
Bovine endothelial cells
  Effect on NO stimulation by Ang-(1–7) or AVE0991: blocked
Mesenteric vessels
  Effect on Ang-(1–7)-dependent dilation of mesenteric vessels: sensitivity to DALA blockade
AT2 and AT1 sites
  Action at AT2 and AT1 sites: lack of actions at AT2 and AT1 sites

## [D-Proline^7]-Ang-(1–7) [D-Pro^7-Ang-(1–7)]
[4]
  Effect of receptor antagonist on Ang-(1–7)-induced vasorelaxation (in words): significantly inhibited; also recorded: essentially abolished
[5]
  Effect on the effects of [Ala^1]-Ang-(1–7): abolished the effects of [Ala^1]-Ang-(1–7)
AT2 and AT1 sites
  Action at AT2 and AT1 sites: lack of actions at AT2 and AT1 sites
